# Counter-ions that a name gives are not always drawn. Like-named read-outs stand apart in the source and are kept apart here.
# What was measured:
# [1] = target: purified human plasma kallikrein (Homo sapiens (Human), UniProt P03952); assay: Plasma kallikrein enzyme inhibition assay (chromogenic substrate S-2302); assay type: biochemical
# Procedure: The effectiveness of compounds of the present invention as inhibitors of the coagulation Factors XIa, VIIa, IXa, Xa, XIIa, plasma kallikrein or thrombin, can be determined using a relevant purified serine protease, respectively, and an appropriate synthetic substrate. The rate of hydrolysis of the chromogenic or fluorogenic substrate by the relevant serine protease was measured both in the absence and presence of compounds of the present invention. […] A decrease in the rate of absorbance or fluorescence change in the presence of inhibitor is indicative of enzyme inhibition. […] The results of this assay are expressed as the inhibitory constant, Ki.
# Values of Ki were determined by allowing the protease to react with the substrate in the presence of the inhibitor.
# The following relationships were used to calculate Ki values: (Vmax*S)/(Km+S); (vo−vs)/vs=I/(Ki(1+S/Km)) for a competitive inhibitor with one binding site; or vs/vo=A+((B−A)/1+((IC50/(I)n))); and Ki−IC50/((1+S/Km) for a competitive inhibitor where:
# [2] = target: purified human Factor XIa (Homo sapiens (Human), UniProt P03951); assay: Factor XIa enzyme inhibition assay (chromogenic substrate S-2366)
# [3] = measured at 25° C. (no asterisk)
# [4] = read-out: Factor XIa Ki, measured at 25° C.
# purified human Factor XIa, sequence (P03951 388-625): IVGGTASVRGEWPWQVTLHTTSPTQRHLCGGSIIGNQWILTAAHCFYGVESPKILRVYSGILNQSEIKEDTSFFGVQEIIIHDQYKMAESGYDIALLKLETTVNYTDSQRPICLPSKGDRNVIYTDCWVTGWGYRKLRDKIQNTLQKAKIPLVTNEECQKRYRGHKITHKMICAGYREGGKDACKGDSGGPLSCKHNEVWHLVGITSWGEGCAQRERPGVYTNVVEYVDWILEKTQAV
# purified human Factor XIa, sequence (P03951 19-387 partner): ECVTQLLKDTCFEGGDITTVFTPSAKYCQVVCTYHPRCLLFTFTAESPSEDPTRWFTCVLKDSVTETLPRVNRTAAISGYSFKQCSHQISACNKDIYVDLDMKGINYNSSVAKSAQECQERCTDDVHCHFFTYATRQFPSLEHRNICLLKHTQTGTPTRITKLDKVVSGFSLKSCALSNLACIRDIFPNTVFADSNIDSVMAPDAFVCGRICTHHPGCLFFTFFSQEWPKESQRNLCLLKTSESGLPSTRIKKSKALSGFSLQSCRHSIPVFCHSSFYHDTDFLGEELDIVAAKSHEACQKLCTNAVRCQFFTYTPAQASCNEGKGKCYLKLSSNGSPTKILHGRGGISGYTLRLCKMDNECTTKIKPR
# purified human plasma kallikrein, sequence (P03952 391-638): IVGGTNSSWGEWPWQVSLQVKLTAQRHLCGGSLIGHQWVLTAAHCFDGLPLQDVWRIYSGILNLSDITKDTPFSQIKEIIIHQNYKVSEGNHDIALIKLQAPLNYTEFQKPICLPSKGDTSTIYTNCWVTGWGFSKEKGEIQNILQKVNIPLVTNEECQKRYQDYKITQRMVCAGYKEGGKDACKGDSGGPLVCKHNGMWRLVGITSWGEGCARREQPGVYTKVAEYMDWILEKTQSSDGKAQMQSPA
# purified human plasma kallikrein, sequence (P03952 20-390 partner): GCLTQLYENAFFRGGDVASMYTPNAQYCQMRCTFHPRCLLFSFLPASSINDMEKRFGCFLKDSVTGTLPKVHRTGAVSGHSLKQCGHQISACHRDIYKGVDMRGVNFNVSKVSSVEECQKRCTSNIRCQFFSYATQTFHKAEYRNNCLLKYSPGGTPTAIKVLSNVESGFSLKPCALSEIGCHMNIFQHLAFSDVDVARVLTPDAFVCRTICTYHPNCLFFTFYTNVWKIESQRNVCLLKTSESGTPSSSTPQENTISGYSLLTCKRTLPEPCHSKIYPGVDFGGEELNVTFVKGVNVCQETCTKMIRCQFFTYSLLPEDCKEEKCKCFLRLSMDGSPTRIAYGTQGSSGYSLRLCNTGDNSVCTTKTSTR
Compound,"Ki [1, 3]",further results
"4-(2-(3-Amino-1-(3-chloro-2-fluorophenyl)-1H-pyrazole-4-carbonyl)-5-(4-(2-(dimethylamino)ethoxy)piperidin-1-yl)-1,2,3,4-tetrahydroisoquinoline-1-carboxamido)benzoic acid, 2 TFA salt [Example 319]",6.41 nM,"Ki [2, 4]: < 5 nM"
"4-(2-(5-amino-1-(3-chloro- 2-fluorophenyl)-1H- pyrazole-4-carbonyl)-5-(4- (pyrrolidin-1- yl)piperidin-1-yl)-1,2,3,4- tetrahydroisoquinoline-1- carboxamido)benzoic acid, 3TFA salt [Example 213]",12.2 nM,Ki ([2]; read-out: Factor XIa Ki): < 5 nM
"4-(2-(5-amino-1-(3-chloro- 2-fluorophenyl)-1H- pyrazole-4-carbonyl)-5-(4- methylpiperazin-1- yl)-1,2,3,4- tetrahydroisoquinoline-1- carboxamido)benzoic acid, 2 TFA salt [Example 212]",2.89 nM,"Ki [2, 4]: 20.9 nM"
"CO[C@@H]1CCN(c2cccc3c2CCN(C(=O)c2cn(-c4cccc(Cl)c4F)nn2)C3C(=O)Nc2ccc(C(=O)O)cc2)C1 (mixture of isomers) [Example 84, 4-(2-(1-(3-chloro-2-fluorophenyl)-1H-1,2,3-triazole-4-carbonyl)-5-((R)-3-methoxypyrrolidin-1-yl)-1,2,3,4-tetrahydroisoquinoline-1-carboxamido)benzoic acid, TFA salt]",15.8 nM,"Ki [2, 4]: < 5 nM"
"COC1CCN(c2cccc3c2CCN(C(=O)c2cnn(-c4cccc(Cl)c4F)c2)C3C(=O)Nc2ccc(C(=O)O)cc2)CC1 (racemic) [Example 252, 4-(2-(1-(3-chloro-2-fluorophenyl)-1H-pyrazole-4-carbonyl)-5-(4-methoxypiperidin-1-yl)-1,2,3,4-tetrahydroisoquinoline-1-carboxamido)benzoic acid, TFA salt]",42.8 nM,Ki [2]: < 5 nM
"COC1CCN(c2cccc3c2CCN(C(=O)c2nnn(-c4cccc(Cl)c4F)c2C)C3C(=O)Nc2ccc(C(=O)O)cc2)CC1 (racemic) [Example 253, 4-(2-(1-(3-chloro-2-fluorophenyl)-5-methyl-1H-1,2,3-triazole-4-cabonyl)-5-(4-methoxypiperidin-1-yl)-1,2,3,4-tetrahydroisoquinoline-1-carboxamido)benzoic acid, TFA salt]",156 nM,Ki [2]: 11.1 nM
"COC1CCN(c2cccc3c2CCN(C(=O)c2cn(-c4c(F)ccc(Cl)c4F)nn2)C3C(=O)Nc2ccc(C(=O)O)cc2)CC1 (racemic) [Example 254, 4-(2-(1-(3-chloro-2,6-difluorophenyl)-1H-1,2,3-triazole-4-carbonyl)-5-(4-methoxypiperidin-1-yl)-1,2,3,4-tetrahydroisoquinoline-1-carboxamido)benzoic acid, TFA salt]",26.7 nM,Ki [2]: < 5 nM
"COC1CCN(c2cccc3c2CCN(C(=O)c2cnn(-c4cccc(Cl)c4F)c2C)C3C(=O)Nc2ccc(C(=O)O)cc2)CC1 (racemic) [Example 259, 4-(2-(1-(3-chloro-2-fluorophenyl)-5-methyl-1H-pyrazole-4-carbonyl)-5-(4-methoxypiperidin-1-yl)-1,2,3,4-tetrahydroisoquinoline-1-carboxamido)benzoic acid, TFA salt]",77.9 nM,Ki [2]: < 5 nM
"COC1CCN(c2cccc3c2CCN(C(=O)c2cn(-c4cccc(Cl)c4F)nc2O)C3C(=O)Nc2ccc(C(=O)O)cc2)CC1 (racemic) [Example 264, 4-(2-(1-(3-chloro-2-fluorophenyl)-3-hydroxy-1H-pyrazole-4-carbonyl)-5-(4-methoxypiperidin-1-yl)-1,2,3,4-tetrahydroisoquinoline-1-carboxamido)benzoic acid, TFA salt]",11.1 nM,Ki [2]: < 5 nM
"O=C(O)c1ccc(NC(=O)[C@H]2c3cccc(-c4cncc(F)c4)c3CCN2C(=O)[C@H]2CC(c3cccc(Cl)c3F)=NO2)cc1 [Example 22, 4-((R)-2-((R)-3-(3-Chloro-2-fluorophenyl)-4,5-dihydroisoxazole-5-carbonyl)-5-(5-fluoropyridin-3-yl)-1,2,3,4-tetrahydroisoquinoline-1-carboxamido)benzoic acid, TFA salt]",–,Ki ([1]; measured at 37° C. (*)): 869 nM
"COCCOc1cccc2c1CCN(C(=O)[C@H]1CC(c3cccc(Cl)c3F)=NO1)[C@@H]2C(=O)Nc1ccc(C(=O)O)cc1 [Example 114, 4-((S)-2-((R)-3-(3-Chloro-2-fluorophenyl)-4,5-dihydroisoxazole-5-carbonyl)-5-(2-methoxyethoxy)-1,2,3,4-tetrahydroisoquinoline-1-carboxamido)benzoic Acid]",15.2 nM,–
"COCCOc1cccc2c1CCN(C(=O)[C@H]1CC(c3cccc(Cl)c3F)=NO1)[C@H]2C(=O)Nc1ccc(C(=O)O)cc1 [Example 115, 4-((R)-2-((R)-3-(3-Chloro-2-fluorophenyl)-4,5-dihydroisoxazole-5-carbonyl)-5-(2-methoxyethoxy)-1,2,3,4-tetrahydroisoquinoline-1-carboxamido)benzoic acid]",61.3 nM,–
"COC1CCN(c2cccc3c2CCN(C(=O)C2CCN(c4cccc(Cl)c4)C2=O)C3C(=O)Nc2ccc(C(=O)O)cc2)CC1 (stereo not drawn) [Example 151, 4-(2-(1-(3-chlorophenyl)-2-oxopyrrolidine-3-carbonyl)-5-(4-methoxypiperidin-1-yl)-1,2,3,4-tetrahydroisoquinoline-1-carboxamido)benzoic acid, TFA salt]",816 nM,–
"O=C(O)c1ccc(NC(=O)[C@@H]2c3cccc(N4CCC(C5COC5)CC4)c3CCN2C(=O)[C@H]2CC(c3cccc(Cl)c3F)=NO2)cc1 [Example 234, 4-((S)-2-((R)-3-(3-Chloro-2-fluorophenyl)-4,5-dihydroisoxazole-5-carbonyl)-5-(4-(oxetan-3-yl)piperidin-1-yl)-1,2,3,4-tetrahydroisoquinoline-1-carboxamido)benzoic acid, TFA salt]",–,Ki ([1]; measured at 37° C. (*)): 26.9 nM
"O=C(O)c1ccc(NC(=O)[C@@H]2c3cccc(-n4cnnc4)c3CCN2C(=O)[C@H]2CC(c3cccc(Cl)c3F)=NO2)cc1 [Example 247, 4-((S)-2-((R)-3-(3-Chloro-2-fluorophenyl)-4,5-dihydroisoxazole-5-carbonyl)-5-(4H-1,2,4-triazol-4-yl)-1,2,3,4-tetrahydroisoquinoline-1-carboxamido)benzoic acid, TFA salt]",–,Ki ([1]; measured at 37° C. (*)): 9.2 nM
"O=C(O)c1ccc(NC(=O)[C@H]2c3cccc(-n4cnnc4)c3CCN2C(=O)[C@H]2CC(c3cccc(Cl)c3F)=NO2)cc1 [Example 248, 4-((R)-2-((R)-3-(3-Chloro-2-fluorophenyl)-4,5-dihydroisoxazole-5-carbonyl)-5-(4H-1,2,4-triazol-4-yl)-1,2,3,4-tetrahydroisoquinoline-1-carboxamido)benzoic acid, TFA salt]",–,Ki ([1]; measured at 37° C. (*)): 83.2 nM
"CC(C)c1nnc2n1CCN(c1cccc3c1CCN(C(=O)[C@@H]1CC(c4cccc(Cl)c4F)=NO1)[C@@H]3C(=O)Nc1ccc(C(=O)O)cc1)C2 [Example 338, 4-((S)-2-((S)-3-(3-Chloro-2-fluorophenyl)-4,5-dihydroisoxazole-5-carbonyl)-5-(3-isopropyl-5,6-dihydro-[1,2,4]triazolo[4,3-a]pyrazin-7(8H)-yl)-1,2,3,4-tetrahydroisoquinoline-1-carboxamido)benzoic acid, TFA salt]",–,Ki ([1]; measured at 37° C. (*)): 251 nM
"CC(C)c1nnc2n1CCN(c1cccc3c1CCN(C(=O)[C@@H]1CC(c4cccc(Cl)c4F)=NO1)[C@H]3C(=O)Nc1ccc(C(=O)O)cc1)C2 [Example 339, 4-((R)-2-((S)-3-(3-Chloro-2-fluorophenyl)-4,5-dihydroisoxazole-5-carbonyl)-5-(3-isopropyl-5,6-dihydro-[1,2,4]triazolo[4,3-a]pyrazin-7(8H)-yl)-1,2,3,4-tetrahydroisoquinoline-1-carboxamido)benzoic acid, TFA salt]",–,Ki ([1]; measured at 37° C. (*)): 84.6 nM

# Continued, in another order:
"Ki [1, 3]",Compound,further results
1.11 nM,"CN1CCN(c2cccc3c2CCN(C(=O)C2CC(c4cccc(Cl)c4F)=NO2)C3C(=O)Nc2ccc(C(=O)O)cc2)CC1 (stereo not drawn) [Example 202, 4-(2-(3-(3-chloro-2-fluorophenyl)-4,5-dihydroisoxazole-5-carbonyl)-5-(4-methylpiperazin-1-yl)-1,2,3,4-tetrahydroisoquinoline-1-carboxamido)benzoic acid, 2 TFA salt]",–
15.2 nM,"O=C(O)c1ccc(NC(=O)[C@@H]2c3cccc(N4CCCCC4)c3CCN2C(=O)[C@H]2CC(c3cccc(Cl)c3F)=NO2)cc1 [Example 291, 4-((S)-2-((R)-3-(3-chloro-2-fluorophenyl)-4,5-dihydroisoxazole-5-carbonyl)-5-(piperidin-1-yl)-1,2,3,4-tetrahydroisoquinoline-1-carboxamido)benzoic acid, TFA salt]",–
758 nM,"O=C(O)c1ccc(NC(=O)[C@H]2c3cccc(N4CCCCC4)c3CCN2C(=O)[C@H]2CC(c3cccc(Cl)c3F)=NO2)cc1 [Example 292, 4-((R)-2-((R)-3-(3-chloro-2-fluorophenyl)-4,5-dihydroisoxazole-5-carbonyl)-5-(piperidin-1-yl)-1,2,3,4-tetrahydroisoquinoline-1-carboxamide)benzoic acid, TFA salt]",–
3.24 nM,"COc1cccc2c1CCN(C(=O)[C@H]1CC(c3cccc(Cl)c3F)=NO1)[C@@H]2C(=O)Nc1ccc(C(=O)O)cc1 [Example 293, 4-((S)-2-((R)-3-(3-chloro-2-fluorophenyl)-4,5-dihydroisoxazole-5-carbonyl)-5-methoxy-1,2,3,4-tetrahydroisoquinoline-1-carboxamide)benzoic acid]",–
111 nM,"COc1cccc2c1CCN(C(=O)[C@H]1CC(c3cccc(Cl)c3F)=NO1)[C@H]2C(=O)Nc1ccc(C(=O)O)cc1 [Example 294, 4-((R)-2-((R)-3-(3-chloro-2-fluorophenyl)-4,5-dihydroisoxazole-5-carbonyl)-5-methoxy-1,2,3,4-tetrahydroisoquinoline-1-carboxamido)benzoic acid]",–
2.44 nM,"O=C(O)c1ccc(NC(=O)[C@@H]2c3cccc(N4CCOCC4)c3CCN2C(=O)[C@H]2CC(c3cccc(Cl)c3F)=NO2)cc1 [Example 295, 4-((S)-2-((R)-3-(3-chloro-2-fluorophenyl)-4,5-dihydroisoxazole-5-carbonyl)-5-morpholino-1,2,3,4-tetrahydroisoquinoline-1-carboxamido)benzoic acid, TFA salt]",–

# — patent US9738655B2, “Tetrahydroisoquinolines containing substituted azoles as factor XIa inhibitors” (BRISTOL-MYERS SQUIBB COMPANY, priority 2013, dated 2017)
